Results as given in patent US11730720B2, “ALK5 inhibitors” (THERAVANCE BIOPHARMA R&D IP, LLC, priority 2018, dated 2023).
pKi: −log10 of the molar value.

How the values were obtained:
[1] = target: T1, recombinant human ALK5 (TGF-βR1) protein (Homo sapiens, UniProt P36897); assay: Biochemical ALK5 (TGF-βR1) assay to measure pKi (LANCE Ultra ULight kinase assay); conditions: apparent pKi, converted from pIC50 using the Cheng-Prusoff equation
T1 construct: purchased Life Technologies PR9075A
T1 sequence (P36897 34-503): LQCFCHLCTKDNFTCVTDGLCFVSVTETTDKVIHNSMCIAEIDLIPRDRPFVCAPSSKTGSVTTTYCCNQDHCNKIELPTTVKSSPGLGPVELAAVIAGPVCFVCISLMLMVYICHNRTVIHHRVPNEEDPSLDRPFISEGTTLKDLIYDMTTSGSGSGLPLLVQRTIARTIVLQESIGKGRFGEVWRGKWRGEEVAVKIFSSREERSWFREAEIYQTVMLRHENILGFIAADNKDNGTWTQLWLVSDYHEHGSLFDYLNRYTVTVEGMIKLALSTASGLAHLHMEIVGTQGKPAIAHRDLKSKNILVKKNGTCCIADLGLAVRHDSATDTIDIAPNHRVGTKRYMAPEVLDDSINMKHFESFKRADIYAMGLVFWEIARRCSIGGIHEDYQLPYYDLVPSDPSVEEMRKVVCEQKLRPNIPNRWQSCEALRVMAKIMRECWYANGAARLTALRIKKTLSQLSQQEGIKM
Summary of the method: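 TR-FRET kinase format: compound dose range 10 μM–25 pM equilibrated 60 min with human ALK5 and ULight-labelled topoisomerase 2α peptide in HEPES/MgCl2 buffer pH 7.5 with DTT. Reaction started with ATP (125 μM stock, 5× final), 60 min at 37° C, stopped with EDTA/Eu-anti-phospho antibody; pKi derived from pIC50 via Cheng-Prusoff.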

[2] = tested on: TGF-β-stimulated SMAD3 phosphorylation in BEAS-2B cells; assay: Cellular ALK5 potency assay, inhibition of TGF-β stimulated pSMAD3 formation in BEAS-2B cells; assay type: cell-based; conditions: Homo sapiens, inhibition of TGF-β (10 ng/mL) stimulated pSMAD3 formation, 1 hour compound incubation, read-out: BEAS2B pIC50 (converted)
Summary of the method: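 Phospho-SMAD3 was quantified by AlphaLISA in lysates of human lung epithelial BEAS-2B cells. Compound was added 1 h (37 °C, HEPES/BSA-supplemented HBSS) before a 30 min challenge with 10 ng/mL TGF-β. Values are pIC50 relative to stimulated cells without compound.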

Structure (SMILES) | pKi [1] | IC50 [2]
CC(C)N1CC[C@@H](N(C)c2cnc3ccc(-c4c[nH]nc4-c4cc(Cl)c(F)cc4F)nc3c2)C1 [Compound 6-37, (R)-6-(3-(5-chloro-2,4-difluorophenyl)-1H-pyrazol-4-yl)-N-(1-isopropylpyrrolidin-3-yl)-N-methyl-1,5-naphthyridin-3-amine] | 9.50 to 10.40 | 25.1 to 158 nM
CNCCn1ccc(-c2cnc3ccc(-c4c[nH]nc4-c4cccc(COC)c4)nc3c2)n1 [Compound 14-10, 2-[3-[6-[3-[3-(methoxymethyl)phenyl]-1H-pyrazol-4-yl]-1,5-naphthyridin-3-yl]pyrazol-1-yl]-N-methyl-ethanamine] | 8.50 to 9.40 | 25.1 to 158 nM
Fc1cc(F)c(-c2n[nH]cc2-c2ccc3ncc(-c4ncn5c4NCC5)cc3n2)cc1Cl [Compound 6-55, 2-[3-(5-chloro-2,4-difluoro-phenyl)-1H-pyrazol-4-yl]-7-(2,3-dihydro-1H-imidazo[1,5-a]imidazol-7-yl)-1,5-naphthyridine] | 9.50 to 10.40 | 25.1 to 158 nM
Fc1cc(F)c(-c2n[nH]cc2-c2ccc3ncc(-c4nnn5c4CNCC5)cc3n2)cc1Cl [Compound 6-57, 2-[3-(5-chloro-2,4-difluoro-phenyl)-1H-pyrazol-4-yl]-7-(4,5,6,7-tetrahydrotriazolo[1,5-a]pyrazin-3-yl)-1,5-naphthyridine] | 8.50 to 9.40 | 25.1 to 158 nM
OCCN1CCN(c2cnc3ccc(-c4c[nH]nc4-c4cc(Cl)ccc4F)nc3c2)CC1 [Compound 1-36, 2-[4-[6-[3-(5-chloro-2-fluoro-phenyl)-1H-pyrazol-4-yl]-1,5-naphthyridin-3-yl]piperazin-1-yl]ethanol] | 9.50 to 10.40 | 25.1 to 158 nM
Fc1ccc(Cl)cc1-c1n[nH]cc1-c1ccc2ncc(NCC3CCN3)cc2n1 (centres unmarked) [Compound 1-17, N-(azetidin-2-ylmethyl)-6-[3-(5-chloro-2-fluoro-phenyl)-1H-pyrazol-4-yl]-1,5-naphthyridin-3-amine] | 9.50 to 10.40 | 25.1 to 158 nM
NCCn1cc(-c2cnc3ccc(-c4nc[nH]c4-c4cc(Cl)ccc4F)nc3c2)cn1 [Compound 2-20, 2-[4-[6-[5-(5-chloro-2-fluoro-phenyl)-1H-imidazol-4-yl]-1,5-naphthyridin-3-yl]pyrazol-1-yl]ethanamine] | 9.50 to 10.40 | 25.1 to 158 nM
COCC(C)(CNc1cnc2ccc(-c3c[nH]nc3-c3cc(Cl)ccc3F)nc2c1)N1CCN(C(C)C)CC1 (centres unmarked) [Compound 1-6, 6-[3-(5-chloro-2-fluoro-phenyl)-1H-pyrazol-4-yl]-N-[2-(4-isopropylpiperazin-1-yl)-3-methoxy-2-methyl-propyl]-1,5-naphthyridin-3-amine] | 8.50 to 9.40 | 200 to 1260 nM
CNC1CCN(c2cnc3ccc(-c4c[nH]nc4-c4cc(Cl)c(F)cc4F)nc3c2)C1 (centres unmarked) [Compound 6-35, 1-[6-[3-(5-chloro-2,4-difluoro-phenyl)-1H-pyrazol-4-yl]-1,5-naphthyridin-3-yl]-N-methyl-pyrrolidin-3-amine] | ≥ 10.50 | ≤ 20 nM
COCc1cccc(-c2n[nH]cc2-c2ccc3ncc(NCCN4CCN(C(C)C)CC4)cc3n2)c1 [Compound 14-17, N-[2-(4-isopropylpiperazin-1-yl)ethyl]-6-[3-[3-(methoxymethyl)phenyl]-1H-pyrazol-4-yl]-1,5-naphthyridin-3-amine] | 7.50 to 8.40 | 200 to 1260 nM
CC(C)NCCN1CCN(c2cnc3ccc(-c4c[nH]nc4-c4cc(Cl)ccc4F)nc3c2)CC1 [Compound 1-76, N-[2-[4-[6-[3-(5-chloro-2-fluoro-phenyl)-1H-pyrazol-4-yl]-1,5-naphthyridin-3-yl]piperazin-1-yl]ethyl]propan-2-amine] | ≥ 10.50 | 25.1 to 158 nM
CNCCn1cc(-c2cnc3ccc(-c4c[nH]nc4-c4cc(Cl)ccc4F)nc3c2)cn1 [Compound 1-87, 2-(4-(6-(3-(5-chloro-2-fluorophenyl)-1H-pyrazol-4-yl)-1,5-naphthyridin-3-yl)-1H-pyrazol-1-yl)-N-methylethan-1-amine] | ≥ 10.50 | ≤ 20 nM
CN(C)C1CC=C(c2cnc3ccc(-c4c[nH]nc4-c4cc(Cl)ccc4F)nc3c2)CC1 (centres unmarked) [Compound 1-96, 4-(6-(3-(5-chloro-2-fluorophenyl)-1H-pyrazol-4-yl)-1,5-naphthyridin-3-yl)-N,N-dimethylcyclohex-3-en-1-amine] | ≥ 10.50 | ≤ 20 nM
Fc1ccc(Cl)cc1-c1n[nH]cc1-c1ccc2ncc(-c3[nH]nc4c3CCNC4)cc2n1 [Compound 1-121, 2-[3-(5-chloro-2-fluoro-phenyl)-1H-pyrazol-4-yl]-7-(4,5,6,7-tetrahydro-2H-pyrazolo[3,4-c]pyridin-3-yl)-1,5-naphthyridine] | 9.50 to 10.40 | 25.1 to 158 nM
NC(=O)c1coc(-c2cnc3ccc(-c4c[nH]nc4-c4cc(Cl)ccc4F)nc3c2)n1 [Compound 1-105, 2-[6-[3-(5-chloro-2-fluoro-phenyl)-1H-pyrazol-4-yl]-1,5-naphthyridin-3-yl]oxazole-4-carboxamide] | 9.50 to 10.40 | 25.1 to 158 nM
Fc1ccc(Cl)cc1-c1n[nH]cc1-c1ccc2ncc(NCC3CCNCC3)cc2n1 [Compound 1-27, 6-[3-(5-chloro-2-fluoro-phenyl)-1H-pyrazol-4-yl]-N-(4-piperidylmethyl)-1,5-naphthyridin-3-amine] | ≥ 10.50 | 25.1 to 158 nM
Fc1ccc(Cl)cc1-c1n[nH]cc1-c1ccc2ncc(Nc3ccc(N4CCNCC4)cn3)cc2n1 [Compound 1-15, 6-(3-(5-chloro-2-fluorophenyl)-1H-pyrazol-4-yl)-N-(5-(piperazin-1-yl)pyridin-2-yl)-1,5-naphthyridin-3-amine] | 9.50 to 10.40 | 25.1 to 158 nM
NC1CCN(c2cnc3ccc(-c4c[nH]nc4-c4cc(Cl)c(F)cc4F)nc3c2)C1 (centres unmarked) [Compound 6-34, 1-[6-[3-(5-chloro-2,4-difluoro-phenyl)-1H-pyrazol-4-yl]-1,5-naphthyridin-3-yl]pyrrolidin-3-amine] | ≥ 10.50 | ≤ 20 nM
Fc1ccc(Cl)cc1-c1n[nH]cc1-c1ccc2ncc(-c3nnn4c3NCC4)cc2n1 [Compound 1-123, 2-[3-(5-chloro-2-fluoro-phenyl)-1H-pyrazol-4-yl]-7-(5,6-dihydro-4H-imidazo[1,2-c]triazol-3-yl)-1,5-naphthyridine] | 9.50 to 10.40 | 25.1 to 158 nM
CN1C[C@H]2C[C@@H]1CN2c1cnc2ccc(-c3c[nH]nc3-c3cc(Cl)ccc3F)nc2c1 (racemic) [Compound 1-42, 2-[3-(5-chloro-2-fluoro-phenyl)-1H-pyrazol-4-yl]-7-[rac-(1R,4R)-5-methyl-2,5-diazabicyclo[2.2.1]heptan-2-yl]-1,5-naphthyridine] | 7.50 to 8.40 | 25.1 to 158 nM
COC(=O)CC1CNCCN1CCNc1cnc2ccc(-c3nc[nH]c3-c3cc(Cl)ccc3F)nc2c1 (centres unmarked) [Compound 2-35, methyl 2-[1-[2-[[6-[5-(5-chloro-2-fluoro-phenyl)-1H-imidazol-4-yl]-1,5-naphthyridin-3-yl]amino]ethyl]piperazin-2-yl]acetate] | 9.50 to 10.40 | 25.1 to 158 nM
Fc1ccc(Cl)cc1-c1n[nH]cc1-c1ccc2ncc(-c3cnn4c3CNCC4)cc2n1 [Compound 1-108, 2-[3-(5-chloro-2-fluoro-phenyl)-1H-pyrazol-4-yl]-7-(4,5,6,7-tetrahydropyrazolo[1,5-a]pyrazin-3-yl)-1,5-naphthyridine] | ≥ 10.50 | ≤ 20 nM
